# Assay results: patent US7799816B2, “Imidazolinylmethyl aryl sulfonamide” (Roche Palo Alto LLC, priority 2008, dated 2010)
# Legend:
# alpha-1A adrenoceptors = biological target: T1, alpha-1A adrenoceptors (Homo sapiens, UniProt P35348); test: alpha-1A adrenoceptor partial agonist activity (intrinsic activity and pEC50); format: biochemical
# T1 sequence (P35348 1-466): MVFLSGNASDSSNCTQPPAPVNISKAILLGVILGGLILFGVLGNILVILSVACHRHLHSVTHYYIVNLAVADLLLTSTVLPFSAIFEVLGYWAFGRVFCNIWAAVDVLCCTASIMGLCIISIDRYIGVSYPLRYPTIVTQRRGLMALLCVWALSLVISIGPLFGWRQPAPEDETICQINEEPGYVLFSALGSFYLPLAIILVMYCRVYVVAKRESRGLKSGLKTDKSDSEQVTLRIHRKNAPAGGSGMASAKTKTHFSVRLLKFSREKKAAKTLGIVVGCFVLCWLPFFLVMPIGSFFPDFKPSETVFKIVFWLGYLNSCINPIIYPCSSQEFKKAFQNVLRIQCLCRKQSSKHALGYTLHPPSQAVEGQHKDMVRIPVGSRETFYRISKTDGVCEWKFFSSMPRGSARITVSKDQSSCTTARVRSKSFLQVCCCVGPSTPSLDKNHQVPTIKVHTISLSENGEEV
# [1] = system: Female Yucatan Micro-Swine; test: Conscious pig model (IUP, MAP, HR); format: in vivo
# Procedure: In general, IUP is the intraurethral pressure and is measured as the 2 minute mean from the first peak of the urethral response (FIG. 1). MAP is the mean arterial blood pressure and is measured as the average blood pressure during the 2 minute section where IUP is measured. The durability is the slope of the IUP response in mmHg/min and is calculated immediately after the 2 minute IUP response for 5 minutes (2-7 minutes post the first peak) for the top 3 doses.
# Conscious Pig Materials and Methods
# Sling Training: Female Yucatan Micro-Swine were trained to stay in a sling for up to 4 hours. Swine were exposed to progressively longer sling durations per IACUC sling-training guideline.
# Surgical Instrumentation: Female Yucatan Micro-swine were instrumented with a telemetry device with both pressure and ECG monitoring capabilities (Data Sciences International St Paul Minn.). In addition, a Bardport low profile titanium VAP was placed subcutaneously for blood sampling. All devices were implanted by the surgical veterinarian at Roche Palo Alto. Briefly, the telemetry probe body was placed subcutaneously in the cervical region. The intra-arterial pressure catheter was advanced via the superficial cervical artery into the subclavian artery for blood pressure measurement. The ECG leads were placed intra-muscularly: one in the intercostal muscle between the T8-T10 regions on the left side, and the other in the intercostal muscles between the T1-T3 regions on the right side. The VAP was placed subcutaneously in the neck region, with the catheter advanced into the jugular vein. […]
# Experiment: After the swine was fully awake and stable (usually approximately 1 hour post wake up), baseline blood pressure, IUP, and heart rate parameters were determined. […]
# Data Generating and Analysis Systems: Cardiovascular readings were generated by the TL11M3-D70-PCP (Data Sciences International, St. Paul, Minn.) telemetry device and associated hardware. […] IUP was monitored by a solid state catheter connected to a TA6000 Polygraph (Data Sciences International, St. Paul, Minn.). […]
compound,measurement,setting,value
"CS(=O)(=O)Nc1cc(F)c(CC2=NCCN2)c(Br)c1Br [Formula I, N-[2,3-Dibromo-4-(4,5-dihydro-1H-imidazol-2-ylmethyl)-5-fluoro-phenyl]-methanesulfonamide]","intrinsic activity, or efficacy, as a partial agonist",alpha-1A adrenoceptors; ideally between 0.35 to 0.60,0.38
same,EC50,"alpha-1A adrenoceptors; read-out: affinity, or pEC50 value (converted)",0.2 µM
same,maximum arterial blood pressure effect,[1],low maximum arterial blood pressure effect
same,selectivity for enhancement of intraurethral pressure (IUP) over blood pressure (MAP),[1],selectivity for enhancement of intraurethral pressure (IUP) over blood pressure (MAP)
same,durability of IUP response over time,"[1]; iv infusion, compared to analogue compound (FIG. 1b vs FIG. 1c)",unexpectedly increased durability of IUP response over time
